Assay results: US9987277B2, “Carboxamide 4-[(4-pyridyl)amino] pryimidines for the treatment of hepatitis C” (Janssen Sciences Ireland UC, priority 2006, dated 2018)

These compounds were tested on HCV type 1b replicon (NS3-NS5B) in Huh-7 luc/neo cells (assay: HCV replicon assay (Huh-Luc luciferase)). Conditions: Hepatitis C virus, Huh-7, 72 h, three days incubation, luciferase activity.
Assay type: cell-based
Description: The compounds of formula (I) were examined for activity in the inhibition of HCV RNA replication in a cellular assay. […] The cellular assay was based on a bicistronic expression construct, as described by Lohmann et al. (1999) Science vol. 285 pp. 110-113 with modifications described by Krieger et al. (2001) Journal of Virology 75: 4614-4624, in a multi-target screening strategy. In essence, the method was as follows.
The assay utilized the stably transfected cell line Huh-7 luc/neo (hereafter referred to as Huh-Luc). This cell line harbors an RNA encoding a bicistronic expression construct comprising the wild type NS3-NS5B regions of HCV type 1b translated from an Internal Ribosome Entry Site (IRES) from encephalomyocarditis virus (EMCV), preceded by a reporter portion (FfL-luciferase), and a selectable marker portion (neo^R, neomycine phosphotransferase). The construct is bordered by 5′ and 3′ NTRs (non-translated regions) from HCV type 1b. Continued culture of the replicon cells in the presence of G418 (neo^R) is dependent on the replication of the HCV RNA. The stably transfected replicon cells that express HCV RNA, which replicates autonomously and to high levels, encoding inter alia luciferase, are used for screening the antiviral compounds.
The replicon cells were plated in 384 well plates in the presence of the test and control compounds which were added in various concentrations. Following an incubation of three days, HCV replication was measured by assaying luciferase activity (using standard luciferase assay substrates and reagents and a Perkin Elmer ViewLux™ ultraHTS microplate imager). Replicon cells in the control cultures have high luciferase expression in the absence of any inhibitor. The inhibitory activity of the compound on luciferase activity was monitored on the Huh-Luc cells, enabling a dose-response curve for each test compound. EC50 values were then calculated, which value represents the amount of the compound required to decrease by 50% the level of detected luciferase activity, or more specifically, the ability of the genetically linked HCV replicon RNA to replicate.
The following Table 1 lists compounds that were tested for activity in the inhibition of HCV RNA replication in a cellular assay according to the procedure described above. Table 1 provides as well structure characterization data for the compounds of formula (I) as described herein. […] In each case, the expected parent ion was observed, and the Table further provides the LC conditions under which the mass spectrum was measured as well as the retention time of the observed product.

**Q.** With `COc1cnc(-c2cc(Cl)ccc2F)nc1Nc1ccncc1C(=O)NCCCN1CCCC1=O` [compound 1] as the compound, how does the EC50 read?
**A.** 0.084 µM

**Q.** For `COc1cnc(-c2cc(Cl)ccc2F)nc1Nc1ccncc1C(=O)NCC(F)(F)F` [compound 2], which EC50 is on record?
**A.** 1.16 µM

**Q.** Which EC50 does the source give for `COc1cnc(-c2cc(Cl)ccc2F)nc1Nc1ccncc1C(=O)NC[C@H]1CCCO1` [compound 3] here?
**A.** 2.64 µM

**Q.** `CCOC(=O)CNC(=O)c1cnccc1Nc1nc(-c2cc(Cl)ccc2F)ncc1OC` [compound 4] was tested. Which EC50 did it give?
**A.** 4.62 µM

**Q.** Which EC50 does the source give for `COc1cnc(-c2cc(Cl)ccc2F)nc1Nc1ccncc1C(=O)NCCCn1ccnc1` [compound 5] here?
**A.** 0.921 µM

**Q.** With `O=C(NC1CC1)c1cnccc1Nc1nc(-c2cc(Cl)ccc2F)ncc1C1CCCC1` [compound 6] as the compound, how does the EC50 read?
**A.** 12.7 µM

**Q.** Which EC50 does the source give for `O=C(NCCO)c1cnccc1Nc1nc(-c2cc(Cl)ccc2F)ncc1C1CCCC1` [compound 8] here?
**A.** 16.4 µM

**Q.** For `COc1cnc(-c2cc(Cl)ccc2F)nc1Nc1ccncc1C(=O)NCCCN1CCOCC1` [compound 9], which EC50 is on record?
**A.** 1.1 µM

**Q.** Which EC50 does the source give for `COc1cnc(-c2cc(Cl)ccc2F)nc1Nc1ccncc1C(=O)NCCNCCO` [compound 10] here?
**A.** 1.48 µM

**Q.** How did the EC50 turn out when `COc1cnc(-c2cc(Cl)ccc2F)nc1Nc1ccncc1C(=O)NCCNCC(C)O` (stereo not drawn) [compound 11] was run?
**A.** 1.14 µM

**Q.** `COc1cnc(-c2cc(Cl)ccc2F)nc1Nc1ccncc1C(=O)NCCCN1CCCCC1C` (stereo not drawn) [compound 13] was tested. Which EC50 did it give?
**A.** 0.55 µM

**Q.** `COc1cnc(-c2cc(Cl)ccc2F)nc1Nc1ccncc1C(=O)NCCN` [compound 14] was tested. Which EC50 did it give?
**A.** 3.67 µM
